In ChEMBL document CHEMBL1287746, “The discovery of tricyclic pyridone JAK2 inhibitors. Part 1: hit to lead” (Bioorg Med Chem Lett, 2010):
pIC50: −log10 of the molar value. Converted amounts (≈) assume the structure as drawn.

What was measured:
[1] = target: T1, Tyrosine-protein kinase JAK2 (Homo sapiens, UniProt O60674); assay: Inhibition of JAK2 in cell-free system
[2] = Aqueous solubility of the compound at pH 7; assay type: physicochemical
[3] = Lipophilicity log D of the compound at pH 7.4 by HPLC; assay type: physicochemical; conditions: buffer
Mus musculus [4] = assay: Inhibition of JAK2 in erythropoietin-treated […] mouse assessed as reduction in pSTAT5 level in whole blood at 90 mg/kg, po measured after 1 and 3 hrs; assay type: functional, organism-based; parameters: dose 90 mg/kg, route oral
Mus musculus [5] = assay: Inhibition of JAK2 in erythropoietin-treated […] mouse assessed as reduction in pSTAT5 level in whole blood at 30 mg/kg, po measured after 1 and 3 hrs; assay type: functional, organism-based; parameters: dose 30 mg/kg, route oral
[6] = Clearance in Sprague-Dawley rat at 1 mg/kg, iv; assay type: ADME, organism-based; parameters: dose 1 mg/kg, route intravenous; conditions: in vivo
[7] = target: T1, Tyrosine-protein kinase JAK2; assay: Inhibition of JAK2 expressed in human Du-145 cells; assay type: cell-based
[8] = Volume of distribution in Sprague-Dawley rat at 1 mg/kg, iv; assay type: ADME, organism-based; parameters: dose 1 mg/kg, route intravenous; conditions: in vivo

T1 sequence (O60674 whole entry): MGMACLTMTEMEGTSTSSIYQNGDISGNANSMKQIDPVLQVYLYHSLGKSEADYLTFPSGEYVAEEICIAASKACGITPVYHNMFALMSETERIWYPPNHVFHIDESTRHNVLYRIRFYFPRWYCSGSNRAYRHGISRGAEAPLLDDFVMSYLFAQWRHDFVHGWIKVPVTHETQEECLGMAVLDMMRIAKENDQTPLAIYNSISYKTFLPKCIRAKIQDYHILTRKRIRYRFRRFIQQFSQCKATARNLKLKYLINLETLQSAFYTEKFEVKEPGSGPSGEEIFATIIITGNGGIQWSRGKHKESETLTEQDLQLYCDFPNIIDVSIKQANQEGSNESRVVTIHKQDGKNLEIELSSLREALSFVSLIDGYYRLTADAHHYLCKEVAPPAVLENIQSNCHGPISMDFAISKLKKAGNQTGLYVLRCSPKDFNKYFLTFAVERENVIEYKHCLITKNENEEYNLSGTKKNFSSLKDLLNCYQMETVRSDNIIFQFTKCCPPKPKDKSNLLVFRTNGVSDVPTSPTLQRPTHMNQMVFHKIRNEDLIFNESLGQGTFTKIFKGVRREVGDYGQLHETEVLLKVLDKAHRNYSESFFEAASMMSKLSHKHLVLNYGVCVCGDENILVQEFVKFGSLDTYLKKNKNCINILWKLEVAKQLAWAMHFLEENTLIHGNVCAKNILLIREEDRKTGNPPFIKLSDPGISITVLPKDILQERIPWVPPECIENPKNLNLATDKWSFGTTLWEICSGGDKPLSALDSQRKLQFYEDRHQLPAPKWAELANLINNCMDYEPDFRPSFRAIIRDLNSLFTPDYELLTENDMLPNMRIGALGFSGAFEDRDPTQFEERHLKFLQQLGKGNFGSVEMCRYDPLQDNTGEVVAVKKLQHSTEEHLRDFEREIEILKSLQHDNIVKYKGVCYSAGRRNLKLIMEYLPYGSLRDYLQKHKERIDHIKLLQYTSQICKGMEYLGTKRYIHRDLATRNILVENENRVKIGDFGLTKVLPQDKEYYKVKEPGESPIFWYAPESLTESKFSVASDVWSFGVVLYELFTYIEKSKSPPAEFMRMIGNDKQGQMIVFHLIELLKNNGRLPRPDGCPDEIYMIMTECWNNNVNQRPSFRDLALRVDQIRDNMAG

| pIC50 [1] | SMILES | further results |
| --- | --- | --- |
| 7.28 | O=c1[nH]ccc2nc(NCc3c(Cl)cccc3Cl)c3ccc(F)cc3c12 |  |
| 7.59 | CC(Nc1nc2cc[nH]c(=O)c2c2cc(F)ccc12)C(C)(C)C (stereo unspecified) |  |
| 6.86 | CC(C)Nc1nc2cc[nH]c(=O)c2c2cc(F)ccc12 |  |
| 5.39 | O=c1[nH]ccc2nc(Nc3cccc(F)c3)c3ccc(F)cc3c12 |  |
| 6.12 | O=c1[nH]ccc2nc(NC3CC(F)(F)C3)c3ccc(F)cc3c12 |  |
| 5.95 | O=c1[nH]ccc2nc(NCc3ccccn3)c3ccc(F)cc3c12 |  |
| 8.40 | O=c1[nH]ccc2nc(Nc3c(F)cc(F)cc3Cl)c3ccc(F)cc3c12 |  |
| 7.85 | O=c1[nH]ccc2nc(Nc3c(Cl)cccc3Cl)c3ccc(F)cc3c12 |  |
| 9.00 | CC(C)[C@@H](Nc1nc2cc[nH]c(=O)c2c2cc(F)ccc12)C(F)(F)F | solubility [2]: 3 µM (≈ 1.06 µg/mL); logD [3]: 3.34; clearance [6]: 1.26 L/h/kg; pIC50 [7]: 7.30; Vd [8]: 6 L/kg |
| 6.56 | CC(C)(CO)CNc1nc2cc[nH]c(=O)c2c2cc(F)ccc12 |  |
| 7.12 | O=c1[nH]ccc2nc(NC3CCC3)c3ccc(F)cc3c12 |  |
| 7.57 | CC(C)[C@H](C)Nc1nc2cc[nH]c(=O)c2c2cc(F)ccc12 |  |
| 5.50 | CC(C)(CN)CNc1nc2cc[nH]c(=O)c2c2cc(F)ccc12 |  |

More lines, now with the values behind:

| SMILES | pIC50 [1] | further results |
| --- | --- | --- |
| CN1CCC(N(c2nc3cc[nH]c(=O)c3c3cc(F)ccc23)C2CC2)CC1 | 6.27 |  |
| O=c1[nH]ccc2nc(N3CCC(F)(F)C3)c(-c3ccc(F)cc3)cc12 | 5.40 |  |
| CC(C)(C)CNc1nc2cc[nH]c(=O)c2cc1-c1ccc(F)cc1 | 4.54 |  |
| CC(C)[C@@H](Nc1nc2cc[nH]c(=O)c2c2cnccc12)C(F)(F)F | 9.00 | solubility [2]: 120 µM (≈ 40.4 µg/mL); logD [3]: 2.33; pIC50 (Mus musculus [4]): 5.57; pIC50 (Mus musculus [5]): 5.57; clearance [6]: 4.08 L/h/kg; pIC50 [7]: 7.40; Vd [8]: 8 L/kg |
| O=c1[nH]ccc2nc(NCC3CCS(=O)(=O)C3)c3ccc(F)cc3c12 (stereo unspecified) | 6.29 |  |
| CC(C)[C@H](Nc1nc2cc[nH]c(=O)c2c2cc(F)ccc12)C(F)(F)F | 7.26 |  |
| CC(Nc1nc2cc[nH]c(=O)c2cc1-c1ccccn1)C(C)(C)C (stereo unspecified) | 6.20 |  |
| CC(Nc1nc2cc[nH]c(=O)c2cc1-c1nc(-c2ccccc2)no1)C(C)(C)C (stereo unspecified) | 4.94 |  |
| CC(Nc1nc2cc[nH]c(=O)c2cc1C(=O)NCCN(C)C)C(C)(C)C (stereo unspecified) | 5.08 |  |
| CC(Nc1nc2cc[nH]c(=O)c2cc1-c1ccc(F)cc1)c1cc(F)c(Cl)cc1Cl (stereo unspecified) | 4.93 |  |
| O=c1[nH]ccc2nc(NCc3ccncc3)c(-c3ccccc3)cc12 | 5.85 |  |
